From ChEMBL document CHEMBL4665653, “VU6005806/AZN-00016130, an advanced M positive allosteric modulator (PAM) profiled as a potential preclinical development candidate” (Bioorg Med Chem Lett, 2019)
Calls of active or inactive are those of the source. No cut-off for these calls is given here.

How the values were obtained:
[1] = Unbound brain-to-plasma concentration ratio in Sprague-Dawley rat at 0.1 to 0.2 mg/kg, iv measured after 0.25 hrs; assay type: ADME, organism-based; conditions: dose 0.1-0.2 mg/kg, read-out: K(p,uu,brain)
[2] = Fraction unbound in rat plasma; assay type: ADME, cell-free
[3] = target: T1, Muscarinic acetylcholine receptor M2 (Homo sapiens, UniProt P08172); assay: Positive allosteric modulation of human M2 receptor/Gqi5 in presence of EC20 acetylcholine by calcium mobilization assay
T1 sequence (P08172 whole entry): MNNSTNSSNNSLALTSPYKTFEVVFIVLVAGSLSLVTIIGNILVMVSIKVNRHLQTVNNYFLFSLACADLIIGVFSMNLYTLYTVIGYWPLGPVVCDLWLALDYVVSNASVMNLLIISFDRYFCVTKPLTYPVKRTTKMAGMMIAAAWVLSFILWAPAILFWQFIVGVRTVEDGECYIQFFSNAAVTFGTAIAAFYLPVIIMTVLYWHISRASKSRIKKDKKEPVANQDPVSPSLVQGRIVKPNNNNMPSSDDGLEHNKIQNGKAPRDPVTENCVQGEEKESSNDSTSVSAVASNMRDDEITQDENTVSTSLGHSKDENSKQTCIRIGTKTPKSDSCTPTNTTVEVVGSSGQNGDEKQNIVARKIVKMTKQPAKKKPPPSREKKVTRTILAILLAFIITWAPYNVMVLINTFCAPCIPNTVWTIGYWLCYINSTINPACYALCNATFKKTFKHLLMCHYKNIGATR

P-gp = assay: Substrate activity at human P-gp expressed in MDCK-MDR1 cells assessed as efflux ratio; assay type: ADME, cell-based
[4] = target: T2, Muscarinic acetylcholine receptor M4 (Homo sapiens) (UniProt P08173); assay: Positive allosteric modulation of human M4 receptor/Gqi5 in presence of EC20 acetylcholine by calcium mobilization assay relative to acetylcholine; assay type: functional; conditions: filed as positive allosteric modulator
T2 sequence (whole entry): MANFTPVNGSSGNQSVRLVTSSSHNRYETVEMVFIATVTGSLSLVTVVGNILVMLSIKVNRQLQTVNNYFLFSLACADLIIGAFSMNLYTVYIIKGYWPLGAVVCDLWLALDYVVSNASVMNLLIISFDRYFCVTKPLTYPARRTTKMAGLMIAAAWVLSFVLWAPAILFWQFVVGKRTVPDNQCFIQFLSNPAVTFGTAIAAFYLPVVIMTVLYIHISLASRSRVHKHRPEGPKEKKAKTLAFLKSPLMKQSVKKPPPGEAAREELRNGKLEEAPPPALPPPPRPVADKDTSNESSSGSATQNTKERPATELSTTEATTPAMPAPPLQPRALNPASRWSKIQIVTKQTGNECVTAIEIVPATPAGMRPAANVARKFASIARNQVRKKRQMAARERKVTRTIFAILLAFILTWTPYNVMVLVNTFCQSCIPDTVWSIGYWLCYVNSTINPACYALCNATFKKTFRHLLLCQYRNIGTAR

[5] = target: T3, Muscarinic acetylcholine receptor M4 (Homo sapiens, UniProt P08173); assay: Positive allosteric modulation of human M4 receptor/Gqi5 in presence of EC20 acetylcholine by calcium mobilization assay; assay type: functional
T3 sequence (P08173 whole entry): T2 sequence (whole entry)

[6] = Fraction unbound in human plasma; assay type: ADME, cell-free
[7] = target: Muscarinic acetylcholine receptor M3 (Homo sapiens, UniProt P20309); assay: Positive allosteric modulation of human M3 receptor
Chain of Muscarinic acetylcholine receptor M3 (P20309 whole entry, looked up): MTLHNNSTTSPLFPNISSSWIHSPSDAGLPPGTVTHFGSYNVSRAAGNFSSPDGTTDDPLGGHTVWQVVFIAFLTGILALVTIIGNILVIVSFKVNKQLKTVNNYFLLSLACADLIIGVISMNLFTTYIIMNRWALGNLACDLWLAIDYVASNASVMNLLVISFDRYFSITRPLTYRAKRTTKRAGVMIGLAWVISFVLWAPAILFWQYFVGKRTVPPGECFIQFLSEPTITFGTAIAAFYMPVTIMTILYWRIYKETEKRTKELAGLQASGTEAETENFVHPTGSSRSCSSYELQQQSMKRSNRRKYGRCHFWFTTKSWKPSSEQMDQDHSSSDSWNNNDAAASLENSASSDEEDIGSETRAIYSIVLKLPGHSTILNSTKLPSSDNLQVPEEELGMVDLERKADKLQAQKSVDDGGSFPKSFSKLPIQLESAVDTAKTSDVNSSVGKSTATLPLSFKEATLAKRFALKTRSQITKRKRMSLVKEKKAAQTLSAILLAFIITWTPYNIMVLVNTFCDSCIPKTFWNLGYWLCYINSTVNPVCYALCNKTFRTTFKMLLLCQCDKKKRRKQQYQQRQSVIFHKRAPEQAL

[8] = Brain to plasma permeability coefficient, Kp in Sprague-Dawley rat at 0.1 to 0.2 mg/kg, iv measured after 0.25 hrs; assay type: ADME, organism-based; conditions: dose 0.1-0.2 mg/kg
[9] = target: T4, Muscarinic acetylcholine receptor M1 (Homo sapiens) (UniProt P11229); assay: Positive allosteric modulation of human M1 receptor
T4 sequence (whole entry): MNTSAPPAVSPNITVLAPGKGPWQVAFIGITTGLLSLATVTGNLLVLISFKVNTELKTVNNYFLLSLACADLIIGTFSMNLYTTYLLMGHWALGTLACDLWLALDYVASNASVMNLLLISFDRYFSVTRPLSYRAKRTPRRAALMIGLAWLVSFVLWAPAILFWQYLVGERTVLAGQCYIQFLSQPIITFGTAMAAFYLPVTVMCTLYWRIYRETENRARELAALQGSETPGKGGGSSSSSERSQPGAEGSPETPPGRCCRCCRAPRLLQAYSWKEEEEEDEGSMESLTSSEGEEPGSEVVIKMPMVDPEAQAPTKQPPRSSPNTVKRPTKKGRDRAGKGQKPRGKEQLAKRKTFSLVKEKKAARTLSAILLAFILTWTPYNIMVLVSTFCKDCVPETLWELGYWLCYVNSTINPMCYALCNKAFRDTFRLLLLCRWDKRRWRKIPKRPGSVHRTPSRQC

[10] = target: T5, Muscarinic acetylcholine receptor M5 (Homo sapiens) (UniProt P08912); assay: Positive allosteric modulation of human M5 receptor
T5 sequence (whole entry): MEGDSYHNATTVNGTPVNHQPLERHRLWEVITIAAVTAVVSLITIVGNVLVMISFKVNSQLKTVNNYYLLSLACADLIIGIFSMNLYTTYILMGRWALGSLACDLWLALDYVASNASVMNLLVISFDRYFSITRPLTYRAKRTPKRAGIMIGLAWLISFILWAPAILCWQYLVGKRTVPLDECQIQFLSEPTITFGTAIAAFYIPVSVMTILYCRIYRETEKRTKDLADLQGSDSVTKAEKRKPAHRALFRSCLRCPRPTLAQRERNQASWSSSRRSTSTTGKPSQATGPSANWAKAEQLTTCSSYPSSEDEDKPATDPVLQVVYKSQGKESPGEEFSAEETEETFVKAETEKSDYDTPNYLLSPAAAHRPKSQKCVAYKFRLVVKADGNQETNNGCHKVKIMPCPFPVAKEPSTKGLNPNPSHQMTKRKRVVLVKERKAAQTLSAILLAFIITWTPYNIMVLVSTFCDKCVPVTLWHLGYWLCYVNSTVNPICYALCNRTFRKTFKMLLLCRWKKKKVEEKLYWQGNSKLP

[11] = Hepatic clearance in human; assay type: ADME
[12] = Fraction unbound in rat brain; assay type: ADME, tissue-based
[13] = Hepatic clearance in rat; assay type: ADME; conditions: in vivo
[14] = target: T1, Muscarinic acetylcholine receptor M2; assay: Positive allosteric modulation of human M2 receptor/Gqi5 in presence of EC20 acetylcholine by calcium mobilization assay relative to acetylcholine; conditions: read-out: %max

SMILES: Cc1c(C(F)F)nnc2sc(C(=O)NC3CN(c4ncc(C(F)(F)F)cn4)C3)c(N)c12
- Kp uu at 0.25 h [1]: 0.88
- fraction unbound [2]: 0.017
- EC50 [3]: > 30 µM
- efflux ratio (P-gp): 3
- %max [4]: 49%
- EC50 [5]: 0.15 µM
- fraction unbound [6]: 0.02
- Activity [7]: inactive
- Kp at 0.25 h [8]: 0.29
- Activity [9]: inactive
- Activity [10]: inactive
- CLH [11]: 0.606 L/h/kg
- fraction unbound [12]: 0.062
- CLH [13]: 1.13 L/h/kg

SMILES: Cc1nnc2sc(C(=O)NC3CN(c4ncc(C(F)(F)F)cn4)C3)c(N)c2c1C
- Kp uu at 0.25 h [1]: 0.18
- fraction unbound [2]: 0.028
- EC50 [3]: 1.16 µM
- efflux ratio (P-gp): 4
- %max [4]: 76%
- EC50 [5]: 0.09 µM
- fraction unbound [6]: 0.048
- Activity [7]: inactive
- Kp at 0.25 h [8]: 0.12
- Emax [14]: 30%
- Activity [9]: inactive
- Activity [10]: inactive
- CLH [11]: 0.263 L/h/kg
- fraction unbound [12]: 0.41
- CLH [13]: 0.636 L/h/kg
